≈ marks a conversion by molar mass, not a printed value. Read-outs that look alike come from different tables or passages of the source. Where a SMILES comes first, the peptide text is derived from it.
Tests used:
[1] = tested on: Enterococcus faecalis ATCC 19433; format: cell-based
[2] = tested on: Proteus vulgaris ATCC 13315; format: cell-based
[3] = tested on: Streptococcus pneumoniae ATCC 49619; format: cell-based
[4] = tested on: Bacillus subtilis ATCC 6633; format: cell-based
[5] = tested on: Enterobacter aerogenes ATCC 13048; format: cell-based
[6] = tested on: Salmonella typhimurium ATCC 14028; format: cell-based
Neisseria sica ATCC 9913 = format: cell-based
[7] = tested on: Staphylococcus aureus ATCC 14154; format: cell-based
[8] = tested on: Enterobacter cloacae ATCC 23355; format: cell-based
C. neoformans Cn52D = format: cell-based, Cryptococcus neoformans
Method: D. Determination of the miminimal inhibitory concentration (MIC) in liquid medium for the Filamentous Fungi and Yeast
Peptide concentrations tested: from 0.2 μg/ml to 100 μg/ml.

[9] = tested on: Acinetobacter baumanii ATCC 19606; format: cell-based
[10] = tested on: Pseudomonas aeruginosa ATCC 27853; format: cell-based
[11] = tested on: Haemophilus influenzae ATCC 49247; format: cell-based
[12] = tested on: Klebsiella pneumoniae ATCC 13883; format: cell-based
[13] = tested on: Bacillus cereus ATCC 11778; format: cell-based
[14] = tested on: Shigella sonnei ATCC 25931
Method: The MIC values were determined by the method of microdilution in liquid medium (NCCLS M7A5) for all of the bacterial species on 96-well polystyrene plates.
The culture medium was Mueller-Hinton broth (MHB) (pH≈7.2-7.4) with supplements according to the bacterial species studied: • MHB alone for the non-exigent species, • MHB+3% lysed horse blood for the streptococci, Listeria and Neisseria, • MHB+hemin 15 mg/l+NAD 15 mg/l+yeast extract 5 g/l for Haemophilus.
The bacterial inoculum was prepared from re-isolation performed on: • CLED agar: non-exigent strains, • blood agar+5% goat blood: streptococci, Listeria and Neisseria • chocolate agar+5% goat blood: Haemophilus, Neisseria.
The final inoculum was at ≈5·10^5 cfu/ml (colony forming units). 50 μl of bacterial inoculum was distributed per well containing an equal volume of the peptide solution diluted by half in the appropriate culture medium depending on the bacterial species (0.5 to 512 μg/ml). The cultures were incubated at 35° C. in ambient air for 16 to 20 hours (20 to 24 h for the streptococci).
Determination of the MBC values was performed after inhibition and reading of the MIC plates:
A volume of 3 μl of each concentration of antibiotic was deposited on the agar media: • MH: for the non-exigent strains, • MH+5% sheep blood: for the streptococci, Listeria, Bacillus and Neisseria, • HTM: for the Haemophilus.
The agars were incubated for 18 h at 35° C. in atmosphere: • in ambient air: for the non-exigent strains, • with 5-6% of CO2: for the streptococci, Listeria, Haemophilus and Neisseria.
The MBC is the lowest concentration of antibiotic that inhibits all bacterial growth on the transplant agar (<0. 1% of survivors).

[15] = tested on: Escherichia coli ATCC 25922; format: cell-based
[16] = tested on: Listeria monocytogenes ATCC 19115; format: cell-based
[17] = tested on: Citrobacter freundii ATCC 8090; format: cell-based
[18] = tested on: Enterococcus faecium ATCC 35667; format: cell-based
[19] = tested on: Staphylococcus aureus ATCC 25923; format: cell-based
[20] = In vivo toxicity: maximal tolerated dose (MTD); conditions: mouse, female OFI mice, intravenous perfusion approx. 15 minutes, 28 days after an injection
Method: The maximal tolerated dose (MTD) for each peptide was determined on female OFI mice at 28 days after an injection. The MTD was defined as the maximal nonlethal dose that could be injected. The peptides were administered by the intravenous route as a perfusion of approximately 15 minutes duration. The injection volume was 10 μl/g, the perfusion rate was 1.2 ml/hour and the excipient was a solution of NaCl at 0.8%.

[21] = tested on: Enterococcus faecalis ATCC 29212; format: cell-based
[22] = tested on: Staphylococcus epidermidis ATCC 12228; format: cell-based
[23] = tested on: Streptococcus agalactiae ATCC 13813; format: cell-based
[24] = tested on: Micrococcus luteus ATCC 9341; format: cell-based
[25] = tested on: Shigella flexneri ATCC 112022
[26] = tested on: Serratia marcescens ATCC 8100; format: cell-based
[27] = tested on: Escherichia coli ATCC 35218; format: cell-based
[28] = tested on: Streptococcus pneumoniae ATCC 6303; format: cell-based
[29] = tested on: Streptococcus pyogenes ATCC 19615; format: cell-based
bacteria = assay: In vitro antibacterial properties under standard evaluation conditions (incubation of 18 hours); format: cell-based; conditions: concentrations described in the literature
Source text: In contrast, I unexpectedly discovered that KLAKLAK (SEQ ID NO: 11) is capable of conferring antibacterial and/or antifungal properties on peptides comprising this motif and a peptide sequence not having antibacterial and/or antifungal properties.

[30] = Javadpour et al. 1996; cited from earlier work
[31] = tested on: three strains of bacteria (E. coli, P. aeruginosa and S. aureus); conditions: incubation period of 4 hours; cited from earlier work
human erythrocytes = assay: Hemolytic activity on human erythrocytes; conditions: 30 minutes, 0 to 500 μg/ml, absorbance 414 nm
Method: 1·10^6 human erythrocytes were incubated for 30 minutes with increasing concentrations of peptides (from 0 to 500 μg/ml) in a final volume of 150 μl. The hemolytic activity was evaluated by measurement of the absorbance (Abs) at the wave length 414 nm (Absorbance of hemoglobin) of the cellular supernatants. The absorbance of the supernatant after incubation of the erythrocytes in water corresponds to 100% (Abs100) of hemolysis and the absorbance of the supernatant after incubation of the erythrocytes in PBS corresponds to 0% of hemolysis (Abs0). The hemolytic activity of the peptides expressed in percentage corresponds to (Abspeptide−Abs0)/Abs100×100.

Molecule: CC(C)C[C@H](NC(=O)CNC(=O)[C@H](CCCNC(=N)N)NC(=O)[C@H](CCCCN)NC(=O)[C@@H](N)C(C)C)C(=O)N[C@@H](CCCCN)C(=O)N[C@@H](CC(C)C)C(=O)N[C@@H](CCCCN)C(=O)N[C@@H](CC(C)C)C(=O)N[C@@H](C)C(=O)N[C@@H](CCCCN)C(=O)N[C@@H](CC(C)C)C(=O)N[C@@H](C)C(=O)N[C@@H](CCCCN)C(=O)N[C@@H](CCCCN)C(=O)N[C@@H](CC(C)C)C(=O)N[C@@H](C)C(=O)N[C@@H](CCCCN)C(=O)N[C@@H](CC(C)C)C(=O)N[C@@H](C)C(=O)N[C@@H](CCCCN)C(=O)O [Peptide 1] (H-VKRGLKLKLAKLAKKLAKLAK-OH; N-terminus and C-terminus assumed)
- MBC [1]: >512 µg/mL
- MIC [1]: >512 µg/mL
- MBC [2]: 256 µg/mL (≈ 110 µM)
- MIC [2]: 128 µg/mL (≈ 55.2 µM)
- MBC [3]: 256 µg/mL (≈ 110 µM)
- MIC [3]: 128 µg/mL (≈ 55.2 µM)
- MBC [4]: 8 µg/mL (≈ 3.45 µM)
- MIC [4]: 8 µg/mL (≈ 3.45 µM)
- MBC [5]: 256 µg/mL (≈ 110 µM)
- MIC [5]: 256 µg/mL (≈ 110 µM)
- MBC [6]: 8 µg/mL (≈ 3.45 µM)
- MIC [6]: 8 µg/mL (≈ 3.45 µM)
- MBC (Neisseria sica ATCC 9913): 128 µg/mL (≈ 55.2 µM)
- MIC (Neisseria sica ATCC 9913): 4 µg/mL (≈ 1.72 µM)
- MBC [7]: 128 µg/mL (≈ 55.2 µM)
- MIC [7]: 64 µg/mL (≈ 27.6 µM)
- MBC [8]: 16 µg/mL (≈ 6.9 µM)
- MIC [8]: 16 µg/mL (≈ 6.9 µM)
- MIC (C. neoformans Cn52D): 12.5 µg/mL (≈ 5.39 µM)
- MBC [9]: 16 µg/mL (≈ 6.9 µM)
- MIC [9]: 8 µg/mL (≈ 3.45 µM)
- MBC [10]: >512 µg/mL
- MIC [10]: 512 µg/mL (≈ 221 µM)
- MBC [11]: 64 µg/mL (≈ 27.6 µM)
- MIC [11]: 64 µg/mL (≈ 27.6 µM)
- MBC [12]: >512 µg/mL
- MIC [12]: >512 µg/mL
- MBC [13]: 128 µg/mL (≈ 55.2 µM)
- MIC [13]: 128 µg/mL (≈ 55.2 µM)
- MBC [14]: 4 µg/mL (≈ 1.72 µM)
- MIC [14]: 4 µg/mL (≈ 1.72 µM)
- MBC [15]: 16 µg/mL (≈ 6.9 µM)
- MIC [15]: 16 µg/mL (≈ 6.9 µM)
- MBC [16]: 128 µg/mL (≈ 55.2 µM)
- MIC [16]: 128 µg/mL (≈ 55.2 µM)
- MBC [17]: 16 µg/mL (≈ 6.9 µM)
- MIC [17]: 16 µg/mL (≈ 6.9 µM)
- MBC [18]: >512 µg/mL
- MIC [18]: 128 µg/mL (≈ 55.2 µM)
- MBC [19]: 64 µg/mL (≈ 27.6 µM)
- MIC [19]: 64 µg/mL (≈ 27.6 µM)
- MTD at 28 days [20]: > 23.2 mg/kg
- MBC [21]: >512 µg/mL
- MIC [21]: >512 µg/mL
- MBC [22]: 4 µg/mL (≈ 1.72 µM)
- MIC [22]: 4 µg/mL (≈ 1.72 µM)
- MBC [23]: 128 µg/mL (≈ 55.2 µM)
- MIC [23]: 128 µg/mL (≈ 55.2 µM)
- MBC [24]: 4 µg/mL (≈ 1.72 µM)
- MIC [24]: 4 µg/mL (≈ 1.72 µM)
- MBC [25]: 32 µg/mL (≈ 13.8 µM)
- MIC [25]: 16 µg/mL (≈ 6.9 µM)
- MBC [26]: >512 µg/mL
- MIC [26]: >512 µg/mL
- MBC [27]: 8 µg/mL (≈ 3.45 µM)
- MIC [27]: 8 µg/mL (≈ 3.45 µM)
- MBC [28]: 64 µg/mL (≈ 27.6 µM)
- MIC [28]: 64 µg/mL (≈ 27.6 µM)
- MBC [29]: 64 µg/mL (≈ 27.6 µM)
- MIC [29]: 64 µg/mL (≈ 27.6 µM)

Molecule: KLAKLAKKLAKLAK [14-mer linear peptide, literature 14-mer linear peptide (Javadpour et al. 1996)]
- antibacterial activity (bacteria): did not reveal any biological activity
- hemolysis [30]: nonhemolytic
- antibacterial activity [31]: showed activity

Molecule: CC(C)C[C@H](NC(=O)[C@H](CCCCN)NC(=O)CNC(=O)[C@H](CCCCN)NC(=O)[C@H](CCCCN)NC(=O)[C@H](CCCCN)NC(=O)[C@H](CCCNC(=N)N)NC(=O)[C@H](CCCCN)NC(=O)CNC(=O)[C@H](CCCCN)NC(=O)[C@H](C)NC(=O)[C@H](CC(C)C)NC(=O)[C@H](CCCCN)NC(=O)[C@H](C)NC(=O)[C@H](CC(C)C)NC(=O)[C@H](CCCCN)NC(=O)[C@H](CCCCN)NC(=O)[C@H](C)NC(=O)[C@H](CC(C)C)NC(=O)[C@H](CCCCN)NC(=O)[C@H](C)NC(=O)[C@H](CC(C)C)NC(=O)[C@@H](N)CCCCN)C(=O)NCC(=O)N[C@@H](CCCCN)C(=O)N[C@@H](CCCCN)C(=O)N[C@@H](CCCNC(=N)N)C(=O)N[C@@H](CC(=O)O)C(=O)N1CCC[C@H]1C(=O)O [Peptide 3] (H-KLAKLAKKLAKLAKGKRKKKGKLGKKRDP-OH; N-terminus and C-terminus assumed)
- MIC (C. neoformans Cn52D; tested 0.2 to 100 μg/ml): 1.56 µg/mL (≈ 0.483 µM)
- MIC [10]: 64 µg/mL (≈ 19.8 µM)
- MIC [19]: 64 µg/mL (≈ 19.8 µM)
- MIC [21]: 64 µg/mL (≈ 19.8 µM)
- MIC [27]: 64 µg/mL (≈ 19.8 µM)
- hemolytic activity (human erythrocytes): did not exhibit hemolytic activity
- MIC [28]: >500 µg/mL

From patent publication US7884070B2, “Linear cationic peptides having antibacterial and/or antifungal properties” (priority 2002, dated 2011)
